The text below walks through data of ChEMBL document CHEMBL1201862, “PubChem BioAssay data set” (2004).

Test [1] deals with Cytochrome P450 3A4 (Homo sapiens, UniProt P08684). The conditions noted are these: Potency.
For test [2], the target named is T1, Cytochrome P450 2C9 (Homo sapiens, UniProt P11712). The following applies: Potency.
In test [3] the target is T1, Cytochrome P450 2C9.
Test [4] addresses T2, Apoptotic protease-activating factor 1 (Homo sapiens, UniProt O14727).
T2 sequence (O14727 whole entry): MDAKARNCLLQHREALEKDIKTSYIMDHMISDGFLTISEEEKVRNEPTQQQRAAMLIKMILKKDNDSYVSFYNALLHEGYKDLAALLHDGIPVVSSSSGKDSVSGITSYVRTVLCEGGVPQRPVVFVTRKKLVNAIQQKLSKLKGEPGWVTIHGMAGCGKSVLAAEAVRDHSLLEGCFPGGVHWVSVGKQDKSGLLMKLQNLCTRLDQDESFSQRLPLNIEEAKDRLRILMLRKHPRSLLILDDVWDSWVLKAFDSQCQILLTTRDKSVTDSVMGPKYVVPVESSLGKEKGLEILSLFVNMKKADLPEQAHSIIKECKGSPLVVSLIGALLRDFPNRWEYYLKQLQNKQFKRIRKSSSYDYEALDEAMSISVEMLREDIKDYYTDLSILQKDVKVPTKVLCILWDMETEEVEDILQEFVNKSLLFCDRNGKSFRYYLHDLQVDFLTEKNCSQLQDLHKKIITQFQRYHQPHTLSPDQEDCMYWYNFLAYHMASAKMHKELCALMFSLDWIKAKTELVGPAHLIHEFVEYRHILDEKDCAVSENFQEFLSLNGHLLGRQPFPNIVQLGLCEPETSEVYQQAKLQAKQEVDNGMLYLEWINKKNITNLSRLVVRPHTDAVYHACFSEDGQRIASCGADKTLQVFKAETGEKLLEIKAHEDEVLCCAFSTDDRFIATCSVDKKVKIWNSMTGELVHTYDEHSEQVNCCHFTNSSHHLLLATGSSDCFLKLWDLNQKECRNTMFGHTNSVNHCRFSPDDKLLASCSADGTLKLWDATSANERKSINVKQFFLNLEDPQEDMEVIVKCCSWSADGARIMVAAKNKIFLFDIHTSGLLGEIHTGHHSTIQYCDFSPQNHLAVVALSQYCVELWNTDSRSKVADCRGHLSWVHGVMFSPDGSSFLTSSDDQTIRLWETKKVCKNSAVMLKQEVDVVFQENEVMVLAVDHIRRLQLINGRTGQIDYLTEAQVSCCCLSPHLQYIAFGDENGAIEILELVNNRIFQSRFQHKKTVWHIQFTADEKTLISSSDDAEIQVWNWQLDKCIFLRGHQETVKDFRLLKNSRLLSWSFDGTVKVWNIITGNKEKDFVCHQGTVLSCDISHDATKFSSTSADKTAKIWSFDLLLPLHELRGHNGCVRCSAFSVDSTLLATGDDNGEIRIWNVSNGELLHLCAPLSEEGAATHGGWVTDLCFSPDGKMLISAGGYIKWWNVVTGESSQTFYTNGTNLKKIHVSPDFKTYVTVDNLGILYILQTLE
Type of test: functional.

The target in test [5] is T3, Protein RecA (Mycobacterium tuberculosis, UniProt P9WHJ3).
T3 sequence (P9WHJ3 whole entry): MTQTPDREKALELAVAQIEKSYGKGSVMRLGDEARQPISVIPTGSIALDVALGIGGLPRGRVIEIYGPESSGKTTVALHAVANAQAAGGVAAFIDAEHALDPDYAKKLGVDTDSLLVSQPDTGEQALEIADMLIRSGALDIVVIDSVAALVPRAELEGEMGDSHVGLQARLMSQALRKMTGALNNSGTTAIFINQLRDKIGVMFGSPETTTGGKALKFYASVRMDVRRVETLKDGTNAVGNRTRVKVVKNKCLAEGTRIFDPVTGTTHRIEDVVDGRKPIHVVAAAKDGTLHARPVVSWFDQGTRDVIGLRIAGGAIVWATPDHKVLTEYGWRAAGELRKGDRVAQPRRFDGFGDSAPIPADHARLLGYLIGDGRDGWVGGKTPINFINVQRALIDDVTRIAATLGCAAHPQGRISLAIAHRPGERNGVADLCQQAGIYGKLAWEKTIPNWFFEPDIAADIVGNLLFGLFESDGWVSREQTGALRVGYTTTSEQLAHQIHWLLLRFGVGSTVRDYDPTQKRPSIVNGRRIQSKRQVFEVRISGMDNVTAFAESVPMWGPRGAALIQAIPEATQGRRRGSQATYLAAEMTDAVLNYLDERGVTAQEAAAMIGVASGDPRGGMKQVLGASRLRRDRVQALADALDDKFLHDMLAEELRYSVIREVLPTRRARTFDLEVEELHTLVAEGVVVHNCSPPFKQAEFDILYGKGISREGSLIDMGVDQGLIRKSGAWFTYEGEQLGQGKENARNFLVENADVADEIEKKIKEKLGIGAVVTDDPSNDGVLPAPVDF
Put plainly: Fluorescence Cell-Free Homogeneous Dose Retest to Identify Inhibitors of RecA-Intein Splicing Activity. [Related pubchem assays (depositor defined):AID2097, AID2223, AID489010, AID492950]. It is filed as functional.

Test [6] addresses T4, Mannose-6-phosphate isomerase (Homo sapiens, UniProt P34949).
T4 sequence (P34949 whole entry): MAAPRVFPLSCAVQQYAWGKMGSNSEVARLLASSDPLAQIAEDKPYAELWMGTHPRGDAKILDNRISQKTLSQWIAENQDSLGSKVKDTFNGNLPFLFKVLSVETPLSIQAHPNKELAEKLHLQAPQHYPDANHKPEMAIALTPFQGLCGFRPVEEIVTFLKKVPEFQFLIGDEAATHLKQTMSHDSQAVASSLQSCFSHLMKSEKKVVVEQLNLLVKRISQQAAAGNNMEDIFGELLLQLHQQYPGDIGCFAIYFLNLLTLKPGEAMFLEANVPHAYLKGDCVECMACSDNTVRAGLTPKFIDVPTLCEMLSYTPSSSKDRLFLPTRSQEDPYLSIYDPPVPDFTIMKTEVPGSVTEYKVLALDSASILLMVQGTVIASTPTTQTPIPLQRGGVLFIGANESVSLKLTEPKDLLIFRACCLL
Put plainly: MPI enzyme activity inhibition – biochemical, fluorescence intensity, coupled assay, primary screen (AID 1209).

Test [7] deals with T4, Mannose-6-phosphate isomerase. Description: MPI inhibition at elevated mannose 6-phosphate – biochemical, fluorescence intensity, high mannose 6-phosphate, primary screen (AID 1220).
The target of test [8] is T5, Polyadenylate-binding protein 1 (Homo sapiens, UniProt P11940). Description: MLLE domain peptide-binding blockers, IC50 – biochemical, fluorescence polarization, FITC-PAM2 peptide, dose response (AID 602259). Type of test: functional. The conditions noted are these: read-out: IC50_Mean. (Polarisation of emitted light reports the rotation of a fluorescent probe.)
The subject of test [9] is INS1. Put plainly: INS-1E survival protection against cytokine death – cell-based, luminescence, retest, dose response (AID 449756).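 Further: cell death triggered by IL-1 beta plus TNF-alpha plus IFN-gamma mixture; protective hits raise ATP signal compared with cytokine alone wells.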 It is filed as functional. The following applies: Rattus norvegicus.
Test [10] is described as follows: inhibition of ADAM10 peptide cleavage – biochemical, FRET peptide substrate, recombinant human ADAM10, selectivity assay for ADAM17 exosite inhibitor project, dose response (AID 743259).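 Further: ADAM10 enzyme cleaving a FRET peptide substrate.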
For test [11], the target named is T5, Polyadenylate-binding protein 1. Description: MLLE binding blockers, Cy5 peptide tracer – biochemical, fluorescence polarization, Cy5-PAM2 peptide, secondary, miRNA deadenylation inhibitor project, dose response (AID 602260). It is filed as functional. The following applies: read-out: IC50_Mean.
Test [12] concerns the target Disintegrin and metalloproteinase domain-containing protein 17 (Homo sapiens, UniProt P78536). Description: exosite inhibitors of ADAM17, dose response, biochemical (AID 743260).
Test [13] concerns the target Nonstructural protein 1 (Influenza A virus, UniProt Q194T2). It is filed as functional, Influenza A virus (A/California/07/2009(H1N1)).
In test [14] the test system is Vero. Put plainly: viability of Vero cells under compound – cytotoxicity control for flavivirus capping enzyme inhibitors (AID 588742). The following applies: Chlorocebus sabaeus. Type of test: functional.
Test [15] concerns Streptococcus sp. 'group A'. Put plainly: Streptococcus pyogenes SK(-)GAS viability under kanamycin – luminescence, BacTiterGlo, confirmation, counter-screen for streptokinase expression inhibitor project, dose response (AID 1900). It is filed as functional, organism-based. (In general: A counterscreen serves to expose hits that act by an unwanted route or on another target.)
In test [16] the test system is Streptococcus. Description: GAS UMAA2166 growth inhibition – luminescence, BacTiterGlo, counter-screen for streptokinase expression inhibitor project, dose response (AID 1915).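 Further: potency for reduction of bacterial viability or growth.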 It is filed as functional, organism-based.
Test [17] deals with Heat shock protein HSP 90-alpha (Homo sapiens, UniProt P07900). It is filed as functional, organism-based.
The nature of test [18]: Luminescence-based counterscreen assay for KLF5 inhibitors: dose response cell-based high throughput screening assay to identify cytotoxic compounds using the IEC-6 intestinal epithelial cell line. [Related pubchem assays: 1700 (Primary screen.), 1834 (Confirmation screen.), 1858 (Summary AID.), 1905 (Counterscreen.)]. Type of test: functional.
Test [19] can be described thus: HEK-293T viability loss after treatment – luminescence, T-cell screen hits, cytotoxicity control for TCR NF-kB inhibitor project, dose response (AID 489026).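 Further: cells exposed to compound about 14 hours before the viability readout.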 It is filed as functional, cell-based.
Test [20] is described as follows: Luminescence Cell-Based Dose Confirmation HTS to Identify Inhibitors of Platelet Dense Granule Release. [Related pubchem assays: 1663 (Primary HTS), 1678 (Summary of Project)]. It is filed as functional.
Test [21] relates to HEK293. Put plainly: cells. The conditions noted are these: Homo sapiens.

The structures appear in SMILES notation. The source made the active and inactive calls. Bounds are passed on as bounds.

T1 sequence (P11712 whole entry): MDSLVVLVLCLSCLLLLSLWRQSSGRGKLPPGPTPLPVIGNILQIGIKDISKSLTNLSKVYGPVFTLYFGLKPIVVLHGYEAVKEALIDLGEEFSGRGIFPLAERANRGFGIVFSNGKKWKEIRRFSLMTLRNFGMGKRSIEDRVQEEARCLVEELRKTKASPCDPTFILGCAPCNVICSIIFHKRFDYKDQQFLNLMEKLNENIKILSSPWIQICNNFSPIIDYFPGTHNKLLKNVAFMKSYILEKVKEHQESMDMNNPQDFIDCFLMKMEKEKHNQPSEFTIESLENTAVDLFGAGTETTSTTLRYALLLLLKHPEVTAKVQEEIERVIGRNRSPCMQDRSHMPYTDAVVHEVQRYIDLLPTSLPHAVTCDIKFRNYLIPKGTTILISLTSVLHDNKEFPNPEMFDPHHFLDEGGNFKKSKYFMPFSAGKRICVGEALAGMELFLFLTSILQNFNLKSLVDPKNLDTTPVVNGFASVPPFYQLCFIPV
Cytochrome P450 3A4, sequence (P08684 whole entry): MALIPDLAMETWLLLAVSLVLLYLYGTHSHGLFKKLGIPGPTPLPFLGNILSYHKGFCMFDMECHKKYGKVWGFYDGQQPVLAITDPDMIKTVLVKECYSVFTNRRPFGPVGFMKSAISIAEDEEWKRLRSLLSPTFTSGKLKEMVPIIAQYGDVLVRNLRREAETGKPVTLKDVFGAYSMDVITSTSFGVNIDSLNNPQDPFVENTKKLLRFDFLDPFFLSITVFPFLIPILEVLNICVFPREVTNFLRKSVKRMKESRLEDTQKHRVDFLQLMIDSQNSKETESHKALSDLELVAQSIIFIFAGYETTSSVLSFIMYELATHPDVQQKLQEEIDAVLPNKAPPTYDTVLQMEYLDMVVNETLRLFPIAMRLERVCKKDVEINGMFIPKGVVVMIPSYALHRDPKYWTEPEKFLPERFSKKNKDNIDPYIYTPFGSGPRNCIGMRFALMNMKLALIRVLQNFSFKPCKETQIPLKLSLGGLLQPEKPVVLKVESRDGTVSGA
T5 sequence (P11940 whole entry, the tested form may be a part): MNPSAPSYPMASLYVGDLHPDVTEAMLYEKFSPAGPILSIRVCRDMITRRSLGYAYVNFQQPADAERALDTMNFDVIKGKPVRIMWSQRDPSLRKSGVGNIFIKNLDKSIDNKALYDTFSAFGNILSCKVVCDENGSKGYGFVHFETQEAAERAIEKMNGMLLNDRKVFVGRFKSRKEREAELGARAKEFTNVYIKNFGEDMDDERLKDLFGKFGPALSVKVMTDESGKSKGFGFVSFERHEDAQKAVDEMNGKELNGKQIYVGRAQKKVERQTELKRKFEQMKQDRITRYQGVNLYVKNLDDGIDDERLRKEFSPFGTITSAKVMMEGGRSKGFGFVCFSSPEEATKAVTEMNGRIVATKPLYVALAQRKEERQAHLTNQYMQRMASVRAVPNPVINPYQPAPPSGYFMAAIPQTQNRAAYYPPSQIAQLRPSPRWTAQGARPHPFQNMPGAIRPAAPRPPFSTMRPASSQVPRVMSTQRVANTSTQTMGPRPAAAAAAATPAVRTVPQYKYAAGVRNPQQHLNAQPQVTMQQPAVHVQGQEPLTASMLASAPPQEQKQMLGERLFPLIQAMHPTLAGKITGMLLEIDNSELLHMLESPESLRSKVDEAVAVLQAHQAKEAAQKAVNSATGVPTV
Nonstructural protein 1, sequence (Q194T2 whole entry): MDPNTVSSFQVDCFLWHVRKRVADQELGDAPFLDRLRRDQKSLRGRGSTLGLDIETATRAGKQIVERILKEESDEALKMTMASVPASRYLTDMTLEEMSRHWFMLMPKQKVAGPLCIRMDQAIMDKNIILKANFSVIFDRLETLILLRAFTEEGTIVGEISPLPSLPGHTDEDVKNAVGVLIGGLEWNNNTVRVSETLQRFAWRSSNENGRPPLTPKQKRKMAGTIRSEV
Disintegrin and metalloproteinase domain-containing protein 17, sequence (P78536 whole entry, the tested form may be a part): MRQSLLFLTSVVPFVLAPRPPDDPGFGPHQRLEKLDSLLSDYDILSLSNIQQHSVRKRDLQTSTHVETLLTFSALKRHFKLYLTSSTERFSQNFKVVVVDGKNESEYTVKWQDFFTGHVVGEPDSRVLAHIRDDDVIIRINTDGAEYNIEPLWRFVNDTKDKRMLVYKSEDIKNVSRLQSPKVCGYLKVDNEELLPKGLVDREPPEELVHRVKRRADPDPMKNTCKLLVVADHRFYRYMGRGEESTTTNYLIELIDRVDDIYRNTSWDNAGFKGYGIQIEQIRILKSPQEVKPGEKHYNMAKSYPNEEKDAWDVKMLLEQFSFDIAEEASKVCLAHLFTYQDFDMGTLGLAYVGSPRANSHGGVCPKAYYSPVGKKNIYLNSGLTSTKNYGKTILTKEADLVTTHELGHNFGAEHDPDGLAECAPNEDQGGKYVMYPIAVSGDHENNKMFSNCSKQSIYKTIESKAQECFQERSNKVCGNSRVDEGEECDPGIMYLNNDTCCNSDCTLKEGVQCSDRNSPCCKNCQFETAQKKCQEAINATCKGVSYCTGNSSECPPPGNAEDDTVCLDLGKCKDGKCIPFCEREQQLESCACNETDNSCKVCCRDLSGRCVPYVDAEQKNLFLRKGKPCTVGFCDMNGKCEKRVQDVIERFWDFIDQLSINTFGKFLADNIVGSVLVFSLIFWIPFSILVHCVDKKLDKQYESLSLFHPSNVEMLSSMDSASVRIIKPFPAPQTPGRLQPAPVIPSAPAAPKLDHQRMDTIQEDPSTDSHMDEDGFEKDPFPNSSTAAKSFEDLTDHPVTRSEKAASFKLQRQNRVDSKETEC

Broadly, the AC50 is the midpoint of the concentration-response curve, whichever way the signal moves. For `COc1cc(O)c(C(=O)c2ccccc2)cc1O` [CEAROIN], the AC50 in test [1] was 0.794 µM (inconclusive).
For `CC(C)(C)c1ccc(S(=O)(=O)/C=C\C#N)cc1`, the AC50 is 2.51 µM (inconclusive) in [2] and 7.94 µM (inconclusive) in [3].
Take `OCC1OC(c2ccc3c(c2)OCO3)C=CC1Oc1cc(Cl)cc(Cl)c1` (centres undefined): the AC50 in [2] is 3.98 µM (inconclusive).
Broadly, the EC50 is the concentration needed to bring the measured effect to its halfway point. For `c1cc2cn[nH]c2cc1NC1CCCCCC1`, the IC50 was 1.94 µM (active) in [4], > 50 µM (not active) in test [6] and > 50 µM (not active) in test [7]. In addition, in test [5], the EC50 was 8.81 µM (active).
On to `COC(=O)[C@@H]1C[C@@]2(O)[C@H](O)[C@H](O)[C@H](O)C[C@H]2N1Cc1ccc(-c2ccccc2)cc1`, for which the concentration at half-maximal activity (AC50) in test [1] is 15.8 µM (inconclusive).
A word on the CC50: it is the concentration at which the toxic effect on the cells reaches its halfway point. On to `Cc1ccc(S(=O)(=O)Nc2cc(Cl)c(O)c3ncccc23)cc1`, for which the IC50 in test [8] was > 66 µM (inactive); in test [10], 11.1 µM (inactive); in [11] it was > 66 µM (inactive); in test [12] it was 21.2 µM (inactive); in [13], 11.5 µM (active); in [18] it was 4.8 µM (active). The AC50 was 2.4 µM (active) in test [9] and 2.38 µM (active) in [17]. The CC50 in [14] was 5.28 µM (active). Also, the EC50 is 8.9 µM (active) in test [15] and 9.72 µM (active) in test [16].
For `CC(C)(C)c1ccc(C(=O)O/N=C(\N)c2ccccc2)cc1`, the values for the IC50 in [19], in [21] and in [18] were > 80 µM (inactive), 5.99 µM (active) and 5.77 µM (active), respectively. Moreover, the EC50 in test [20] is 4.8 µM (active).
